One block for each molecule: values may come before it. Non-standard residues stand in square brackets, D forms with d. No end group written: not given here. Dmt = Cc1cc(O)cc(C)c1C[C@H](N)C(=O)O; Orn = NCCC[C@H](N)C(=O)O
Experiments:
purified SMAC = experiment: Glass‐bound peptide array blotted with SMAC with or without PSD; assay type: binding, human; conditions: SMAC preincubated with purified PSD, anti‐SMAC antibodies
Experimental: Customized 768‐peptide sequences derived from 11 SMAC‐interacting proteins produced by INTAVIS Peptide Services (GmbH & Co. KG, Tübingen, Germany) were arrayed on a glass slide. Peptide arrays were blotted with SMAC, PSD or peptides interacting with PSD using anti‐SMAC or anti‐PSD antibodies. The interaction of purified SMAC or PSD with glass‐bound peptide arrays was assessed by slide washing (three times, 10 min each) with Tris‐buffered saline (150 mM NaCl, 50 mM Tris/HCl, pH 7.4), followed by overnight incubation with blocking buffer (Tris‐buffered saline containing low‐fat dry milk, 2.5%, w/v). The slides were then incubated for 4 h or overnight with purified SMAC (0.8 µM) with and without preincubation with PSD (0.3 µM). Similarly, slides were incubated with PSD (0.15 µM) with or without preincubation with the indicated peptide (20 μM) in blocking buffer at room temperature. After extensive slide washing with Tris‐buffered saline containing 0.05% Tween‐20, SMAC or PSD binding was detected using anti‐SMAC or anti‐PSD antibodies and HRP‐conjugated anti‐rabbit or anti‐mouse IgG as a secondary antibody. The blots were developed using EZ‐ECL (Biological Industries), according to the manufacturer’s instructions.
Fig. 6 PSD‐ and SMAC‐interacting partners. (A) Schematic presentation of peptide array and detection of their interaction with SMAC. (B) Glass‐bound peptide array consisting of overlapping peptides derived from 15 SMAC‐interacting proteins were incubated overnight with purified SMAC (0.8 µM) and then blotted with anti‐SMAC antibodies (1 : 1000), followed by incubation with HRP‐conjugated anti‐mouse IgG and detection using a chemiluminescence kit. Dark spots represent binding of SMAC to peptides derived from SMAC‐interacting proteins. (C) SMAC (0.3 µM) was incubated with purified PSD (0.4 µM) and blotted as in (B). The peptide spots where PSD prevented interaction with SMAC (Table S1) are circled. (D) Schematic presentation of peptide array and detection of their interaction with PSD. […]

purified PSD = target: T1, purified PSD (Homo sapiens, UniProt Q9UG56); experiment: MST, labelled PSD with synthetic peptides; conditions: labelled PSD 0.25 µM, peptide 1–10 µM, 30 min, 37 °C, n = 3, read-out: Kd, peptide binding to purified PSD
T1 construct: Purified recombinant protein (full length) of human phosphatidylserine decarboxylase (PSD); His tag (N); purchased Acris-OriGene; host or cells: E. coli
T1 sequence (Q9UG56 53-409): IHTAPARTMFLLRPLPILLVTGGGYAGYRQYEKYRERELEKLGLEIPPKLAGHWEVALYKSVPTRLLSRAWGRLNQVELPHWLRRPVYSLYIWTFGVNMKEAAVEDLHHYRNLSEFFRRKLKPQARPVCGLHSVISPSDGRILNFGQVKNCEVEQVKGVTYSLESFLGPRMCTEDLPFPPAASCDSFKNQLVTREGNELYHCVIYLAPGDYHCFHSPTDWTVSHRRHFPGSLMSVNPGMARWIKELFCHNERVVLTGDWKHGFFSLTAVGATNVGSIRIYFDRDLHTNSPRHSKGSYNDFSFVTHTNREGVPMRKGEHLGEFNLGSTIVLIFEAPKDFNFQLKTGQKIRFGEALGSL

different cell lines = conditions: ref [35], cited from earlier work
Description: To target the peptide to the nucleus (nuCPP), the peptides were fused to the tetrapeptide RrRK (r = D‐arginine), shown to primarily target the nucleus of HeLa cells.

[1] = target: T2, Purified recombinant protein (full length) of human phosphatidylserine decarboxylase (PSD) (human, UniProt Q9UG56 53-409, fluorescently labelled (in the MST with the peptides 2F3 and 1C11 only)); experiment: MST; SMAC fluorescently labelled (NanoTemper BLUE kit), 1 µM, incubated with purified PSD (78–625 nM) for 30 min at 37 °C; 10 mM Tris buffer, pH 7.4; Monolith NT.115, LED 20%, IR laser 20%; conditions: both partners purified
T2 construct: phosphatidylserine decarboxylase, human, full length, recombinant; also called PISD; purified PSD; source: bought: Acris‐OriGene, expressed in E. coli, purified; not shown: His tag, N-terminal, kept
T2 sequence (looked up): T1 sequence (Q9UG56 53-409)

Molecule: ALSTSSPIPSVPQSQAQPQTGSGAS [2F3]
- Kd (purified PSD): 3 µM

Molecule: FQQLTCVLPI LDNLLKANVINKQEH [1E14]
- effect of PSD preincubation on SMAC binding to the peptide spot (purified SMAC): prevented SMAC interaction

Molecule: [dR][Dmt][Orn]F-NH2 [mtCPP‐1]
- toxicity (different cell lines; different cell lines): no toxicity
- induction of apoptosis (different cell lines): did not induce apoptosis

Molecule: ALLTSGTSDPRARVTYGTPSLWRL [1C11]
- Kd (purified PSD): 3 µM

More lines, now with the values ahead:

- effect of PSD preincubation on SMAC binding to the peptide spot (purified SMAC): prevented SMAC interaction
Molecule: PNQSSRAFQGT DHSSDLAFDFLSQQ [2I8]

- effect of PSD preincubation on SMAC binding to the peptide spot (purified SMAC): prevented SMAC interaction
Molecule: DVDKLREQLS TSENALTGRILDLKT [2J14]

- Kd [1]: 0.246 µM
B1: Human recombinant SMAC (SMAC/Diablo, second mitochondria‐derived activator of caspase/direct inhibitor of apoptosis‐binding protein with low pI) (natural protein)
chain: AVPIAQKSEPHSLSSEALMRRAVSLVTDSTSTFLSQTTYALIEAITEYTKAVYTLTSLYRQYTSLLGKMNSEEEDEVWQVIIGARAEMTSKHQEYLKLETTWMTAVGLSEMAAEAAYQTGADQASITARNHIQLVKLQVEEVHQLSRKAETKLAEAQIEELRQKTQEEGEERAESEQEAYLRED
modifications: fluorescently labelled with the NanoTemper Protein labelling kit BLUE (in the MST with PSD only)

From paper PMC8564633, “SMAC/Diablo controls proliferation of cancer cells by regulating phosphatidylethanolamine synthesis” (Molecular Oncology, 2021)
